The NIST ThermoML archive (doi:10.1016/j.jct.2015.06.004)
± gives the expanded uncertainty stated by the source.

How the values were obtained:
[1] = excess molar enthalpy (molar enthalpy of mixing); xn = mol fraction of the nth substance listed; settings: 298.15 K, 100 kPa, Liquid, Power-compensation calorimetry
[2] = 298.15 K; 101.33 kPa; Liquid; Vibrating tube method

CCCC[N+]1(C)CCCC1.N#C[B-](C#N)(C#N)C#N [1-butyl-1-methylpyrrolidinium tetracyanoborate] + Cc1ccccc1
[1]
Settings | excess molar enthalpy [kcal/mol]
x1 = 0.0179 | -0.0242 ± 0.00141
x1 = 0.0359 | -0.0474 ± 0.00167
x1 = 0.0539 | -0.0702 ± 0.00201
x1 = 0.0719 | -0.093 ± 0.00239
x1 = 0.0898 | -0.116 ± 0.00287
x1 = 0.1079 | -0.138 ± 0.00335
x1 = 0.1259 | -0.161 ± 0.00359
x1 = 0.1439 | -0.184 ± 0.00406
x1 = 0.1619 | -0.206 ± 0.00454
x1 = 0.1799 | -0.228 ± 0.00502
x1 = 0.1979 | -0.249 ± 0.0055
x1 = 0.2159 | -0.271 ± 0.00598
x1 = 0.2339 | -0.291 ± 0.00621
x1 = 0.2519 | -0.304 ± 0.00645
x1 = 0.2698 | -0.313 ± 0.00669
x1 = 0.2878 | -0.319 ± 0.00693
x1 = 0.2933 | -0.315 ± 0.00669
x1 = 0.3059 | -0.322 ± 0.00693
x1 = 0.3203 | -0.319 ± 0.00693
x1 = 0.3239 | -0.323 ± 0.00693
x1 = 0.3369 | -0.321 ± 0.00693
x1 = 0.3603 | -0.312 ± 0.00669
x1 = 0.4004 | -0.301 ± 0.00645
x1 = 0.4405 | -0.285 ± 0.00621
x1 = 0.4805 | -0.267 ± 0.00574
x1 = 0.5206 | -0.247 ± 0.00526
x1 = 0.5606 | -0.226 ± 0.00478
x1 = 0.6006 | -0.206 ± 0.00454
x1 = 0.6407 | -0.184 ± 0.00406
x1 = 0.6807 | -0.163 ± 0.00359
x1 = 0.7207 | -0.141 ± 0.00311
x1 = 0.7606 | -0.12 ± 0.00263
x1 = 0.8006 | -0.0991 ± 0.00222
x1 = 0.8405 | -0.0784 ± 0.00179
x1 = 0.8803 | -0.058 ± 0.00139
x1 = 0.9202 | -0.0379 ± 0.001
x1 = 0.9601 | -0.0183 ± 0.000693

CCCC[N+]1(C)CCCC1.N#C[B-](C#N)(C#N)C#N [1-butyl-1-methylpyrrolidinium tetracyanoborate] + CCO
[1]
Settings | excess molar enthalpy [kcal/mol]
x1 = 0.0134 | 0.0375 ± 0.00287
x1 = 0.0268 | 0.0729 ± 0.00311
x1 = 0.0402 | 0.107 ± 0.00335
x1 = 0.0537 | 0.14 ± 0.00382
x1 = 0.0672 | 0.171 ± 0.0043
x1 = 0.0808 | 0.201 ± 0.00478
x1 = 0.0948 | 0.23 ± 0.00526
x1 = 0.1088 | 0.257 ± 0.00574
x1 = 0.1228 | 0.283 ± 0.00621
x1 = 0.1368 | 0.307 ± 0.00669
x1 = 0.1509 | 0.329 ± 0.00717
x1 = 0.1511 | 0.334 ± 0.00741
x1 = 0.165 | 0.35 ± 0.00765
x1 = 0.1652 | 0.355 ± 0.00765
x1 = 0.1792 | 0.369 ± 0.00813
x1 = 0.1902 | 0.389 ± 0.00837
x1 = 0.1933 | 0.387 ± 0.00837
x1 = 0.2067 | 0.403 ± 0.0086
x1 = 0.2202 | 0.424 ± 0.00908
x1 = 0.2403 | 0.444 ± 0.00956
x1 = 0.2803 | 0.477 ± 0.0103
x1 = 0.3203 | 0.501 ± 0.0108
x1 = 0.3604 | 0.517 ± 0.011
x1 = 0.4005 | 0.525 ± 0.0112
x1 = 0.4406 | 0.527 ± 0.0112
x1 = 0.4806 | 0.521 ± 0.011
x1 = 0.5206 | 0.51 ± 0.0108
x1 = 0.5607 | 0.492 ± 0.0105
x1 = 0.6007 | 0.47 ± 0.01
x1 = 0.6408 | 0.441 ± 0.00956
x1 = 0.6807 | 0.408 ± 0.00884
x1 = 0.7203 | 0.371 ± 0.00789
x1 = 0.7604 | 0.328 ± 0.00717
x1 = 0.8002 | 0.282 ± 0.00621
x1 = 0.8402 | 0.232 ± 0.00526
x1 = 0.8802 | 0.178 ± 0.00406
x1 = 0.9201 | 0.121 ± 0.00311
x1 = 0.96 | 0.0612 ± 0.00203

c1ccccc1 [benzene]
Settings | mass density [kg/m3]
[2] | 873.57 ± 1

CCO [ethanol]
Settings | mass density [kg/m3]
[2] | 785.39 ± 1

CCCC[N+]1(C)CCCC1.N#C[B-](C#N)(C#N)C#N [1-butyl-1-methylpyrrolidinium tetracyanoborate] + c1ccccc1
[1]
Settings | excess molar enthalpy [kcal/mol]
x1 = 0.0138 | -0.0203 ± 0.00153
x1 = 0.0277 | -0.0402 ± 0.0017
x1 = 0.0415 | -0.06 ± 0.00196
x1 = 0.0555 | -0.0799 ± 0.00227
x1 = 0.0694 | -0.0998 ± 0.00263
x1 = 0.0834 | -0.12 ± 0.00287
x1 = 0.0975 | -0.14 ± 0.00335
x1 = 0.1115 | -0.16 ± 0.00382
x1 = 0.1256 | -0.18 ± 0.00406
x1 = 0.1398 | -0.2 ± 0.00454
x1 = 0.1539 | -0.219 ± 0.00502
x1 = 0.1681 | -0.238 ± 0.00526
x1 = 0.1824 | -0.253 ± 0.0055
x1 = 0.1966 | -0.266 ± 0.00574
x1 = 0.2109 | -0.277 ± 0.00598
x1 = 0.2253 | -0.285 ± 0.00621
x1 = 0.2396 | -0.29 ± 0.00621
x1 = 0.2534 | -0.29 ± 0.00621
x1 = 0.254 | -0.294 ± 0.00621
x1 = 0.2685 | -0.296 ± 0.00621
x1 = 0.2767 | -0.296 ± 0.00621
x1 = 0.28 | -0.296 ± 0.00645
x1 = 0.3165 | -0.294 ± 0.00621
x1 = 0.3564 | -0.284 ± 0.00598
x1 = 0.3963 | -0.269 ± 0.00574
x1 = 0.4362 | -0.252 ± 0.0055
x1 = 0.4762 | -0.232 ± 0.00502
x1 = 0.5162 | -0.212 ± 0.00454
x1 = 0.5564 | -0.192 ± 0.00406
x1 = 0.5965 | -0.172 ± 0.00382
x1 = 0.6367 | -0.153 ± 0.00335
x1 = 0.6769 | -0.134 ± 0.00287
x1 = 0.7172 | -0.116 ± 0.00263
x1 = 0.7575 | -0.0981 ± 0.0022
x1 = 0.7979 | -0.0803 ± 0.00182
x1 = 0.8384 | -0.0632 ± 0.00146
x1 = 0.8788 | -0.0466 ± 0.00112
x1 = 0.9191 | -0.0305 ± 0.000813
x1 = 0.9596 | -0.0149 ± 0.00055

CCCC[N+]1(C)CCCC1.N#C[B-](C#N)(C#N)C#N [1-butyl-1-methylpyrrolidinium tetracyanoborate] + CO
[1]
Settings | excess molar enthalpy [kcal/mol]
x1 = 0.013 | 0.0258 ± 0.0021
x1 = 0.026 | 0.0519 ± 0.00232
x1 = 0.039 | 0.0782 ± 0.00263
x1 = 0.052 | 0.104 ± 0.00311
x1 = 0.065 | 0.129 ± 0.00335
x1 = 0.078 | 0.153 ± 0.00382
x1 = 0.091 | 0.176 ± 0.00406
x1 = 0.104 | 0.197 ± 0.00454
x1 = 0.117 | 0.218 ± 0.00502
x1 = 0.13 | 0.237 ± 0.0055
x1 = 0.1362 | 0.255 ± 0.00574
x1 = 0.143 | 0.254 ± 0.0055
x1 = 0.156 | 0.271 ± 0.00598
x1 = 0.1602 | 0.288 ± 0.00621
x1 = 0.169 | 0.287 ± 0.00621
x1 = 0.1775 | 0.297 ± 0.00645
x1 = 0.2003 | 0.334 ± 0.00717
x1 = 0.2404 | 0.37 ± 0.00789
x1 = 0.2805 | 0.399 ± 0.0086
x1 = 0.3207 | 0.419 ± 0.00884
x1 = 0.3608 | 0.432 ± 0.00932
x1 = 0.4009 | 0.439 ± 0.00932
x1 = 0.441 | 0.439 ± 0.00932
x1 = 0.4812 | 0.434 ± 0.00932
x1 = 0.5213 | 0.423 ± 0.00908
x1 = 0.5615 | 0.407 ± 0.0086
x1 = 0.6016 | 0.386 ± 0.00837
x1 = 0.6416 | 0.361 ± 0.00765
x1 = 0.6816 | 0.331 ± 0.00717
x1 = 0.7217 | 0.298 ± 0.00645
x1 = 0.7616 | 0.261 ± 0.00574
x1 = 0.8015 | 0.221 ± 0.00478
x1 = 0.8414 | 0.177 ± 0.00406
x1 = 0.8814 | 0.13 ± 0.00311
x1 = 0.9213 | 0.0811 ± 0.00217
x1 = 0.9606 | 0.0317 ± 0.00146
